Reference: patent US20210338699A1 (priority 2018, published 2021)
Like-named read-outs stand apart in the source and are kept apart here.

Assays:
ROCK = details: cited from earlier work
[1] = tested on: blood vessel permeability; details: mouse, in vivo; cited from earlier work
[2] = tested on: fibroblasts from WT and ROCK1^−/− mice; assay: Ponatinib treatment of WT and ROCK1−/− fibroblasts; format: cell-based
cells expressing BCR-ABL = assay: Proliferation by [3H] thymidine incorporation, BCR-ABL cells; format: cell-based; details: absence of growth factors, 48 hours
Protocol: (§1) FIG. 9A. […] After 48 hours, proliferation was evaluated by [^3H] thymidine incorporation.
FIG. 12A. Graph illustrating the effect of ROCK inhibitor (H-1152) alone or in combination with imatinib on proliferation of myeloid cells expressing BCR-ABL.
(§2) In order to illustrate the imatinib resistance, very high dose of imatinib were used in these cells.
Referring now to FIG. 11, primary CML patient derived cells were examined and a human cell line bearing BCR-ABL (K562) was used as a positive control.

[3] = tested on: cells expressing FLT3-ITD (FLT3N51); assay: Proliferation by [3H] thymidine incorporation, FLT3-ITD cells; format: cell-based; details: absence of growth factors, 48 hours
Protocol: as §1, §2

leukemic mice = assay: Survival of leukemic mice treated with ROCK inhibitors; format: in vivo
From the text: Increased ROCK activity is associated with cardiovascular disease (CVD).

WT and ROCK1^−/− mice = assay: Serial doxorubicin administration, DOX-induced CTX in WT and ROCK1−/− mice
Protocol: FIG. 1A. Schematic diagram representing serial doxorubicin administration protocol. WT and ROCK1^−/− mice received three serial injections weekly of normal saline (NS) or doxorubicin (DOX) (8 mg/kg). […]
The generation of ROCK1 deficient mice have been previously reported. […] To assess if a deficiency of ROCK1 protects the mice from DOX induced CTX, control (WT) and ROCK1^−/− mice were injected with 8 mg/kg of DOX or normal saline (NS) once weekly for 3 consecutive weeks, for a cumulative dose of 24 mg/kg (FIG. 1A). This treatment is based on the previously described approach, which causes progressive cardiac dysfunction within three weeks after the initial injection, a scenario that mimics early-onset of DOX-induced CTX in humans.
To elucidate the role of ROCK1 in DOX induced CTX, ROCK1^−/− mice were treated with DOX in parallel to the WT mice.
During autophagy, the cytosolic form of microtubule-associated protein 1 light chain 3 (LC3-I) is conjugated to phosphatidylethanolamine to form LC3-II, which is recruited to autophagosomal membranes.

[4] = tested on: MHC-Cre/ROCK1^fl/fl and ROCK1^fl/fl mice; assay: DOX-induced CTX in cardiomyocyte-specific ROCK1 knockout mice; format: in vivo; details: three weekly injections 8 mg/kg, day 21
Protocol: FIG. 7A. Graph illustrating the percent fractional shortening (FS) of cardiomyocyte-specific ROCK1 knockout mice (MHC-Cre/ROCKfl/fl) and ROCK1fl/fl mice (8-9 weeks old) after receiving three serial injections weekly of NS or DOX (8 mg/kg). Cardiac function was measured by echocardiography analysis on day 21 after the initial injection.
FIG. 7B. Graph illustrating total TUNEL positive nuclei per 10^5 total nuclei in ventricular myocardium from MHC-Cre/ROCK^fl/fl and ROCK1^fl/fl mice hearts on day 21. N=4-6 in each group.
FIG. 7C. Representative heart sections stained with picrosirius red/Fast green illustrating the collagen deposition in ventricular myocardium of MHC-Cre/ROCK^fl/fl and ROCK1^fl/fl mice hearts on day 21. N=4-6 in each group.
To determine if ROCK1 in cardiomyocytes has a role in DOX-induced CTX, cardiomyocyte-specific ROCK1 knockout mice were generated. In myosin heavy chain (MHC)-Cre/ROCK1^fl/fl mice, the ROCK1 protein is truncated only in cardiomyocytes from residue 137 to the end of the protein (FIGS. 6A, 6B). Similar to ROCK1^−/− mice in which the ROCK1 protein is also truncated from residue 180 to the end of the protein in all cells, the conditional targeting approach results in the removal of a large portion of the kinase domain and amino acids from the coiled-coil and the PH domains. […]

AML mice = tested on: AML mice
From the text: Three different sources of donor cells will be utilized: 1) WT LSK cells; 2) Tet2^−/−FLT3^ITD/+ LSK cells; and 3) Dnmt3a^−/−FLT3^ITD/+ LSK cells. Lethally irradiated CD45.1^+ (BoyJ) recipient mice of the above described 5 genotypes will be transplanted with CD45.2^+WT, Tet2^−/−FLT3^ITD/+ or Dnmt3a^−/−FLT3^TID/+ leukemic cells along with CD45.1^+ normal cells in 1:1 ratio pooled from 2-3 mice of either gender at 4 months of age. 2 months posttransplant, the development of AML in these mice will be assessed by analysing peripheral blood. Mice will be randomly assigned into two groups: 1) vehicle; and 2) intraperitoneal injection (IP) of DOX 8 mg/kg/week for 3 weeks. This treatment is based on the previously described approach. […] Alternatively, mice will be subjected to 5 IP injections of DOX (5 mg/Kg) with one-week intervals for a cumulative dose of 25 mg/kg over a period of 5 weeks. […] Relapse of these mice will be monitored closely and DOX will be re-administered and then be compared for CTX.

[5] = tested on: cancer patients including AML patients; details: within 9 years of DOX treatment; cited from earlier work

In the case of CC(C)c1c(C(=O)Nc2ccccc2)c(-c2ccccc2)c(-c2ccc(F)cc2)n1CC[C@@H](O)C[C@@H](O)CC(=O)O [atorvastatin], the ROCK activity (ROCK; patients with atherosclerosis) is listed as “inhibits ROCK activity”.
For Cc1nc(Nc2ncc(C(=O)Nc3c(C)cccc3Cl)s2)cc(N2CCN(CCO)CC2)n1 [dasatinib], the “amount of Evans Blue in the small intestine” value [1] is listed as “significantly increases”.
With Cc1ccc(C(=O)Nc2ccc(CN3CCN(C)CC3)c(C(F)(F)F)c2)cc1C#Cc1cnc2cccnn12 [ponatinib] the cell survival ([2]; ROCK1−/− cells) was “enhanced survival”, the “cleaved caspase 3/8 levels” value ([2]; ROCK1−/− cells) was “profound decrease” and the “ponatinib induced cell shape changes” value ([2]; ROCK1−/− fibroblasts) was “not the case”. The “cleaved caspase 8/3 levels” value ([2]; WT fibroblasts) was “profound increase” and the “ponatinib induced cell shape changes” value ([2]; WT fibroblasts, increasing doses) was “significant changes”.
With C[C@@H](N)[C@H]1CC[C@H](C(=O)Nc2ccncc2)CC1 [Y27632] the “constitutive growth (thymidine incorporation)” value (from here on “constitutive growth”) (cells expressing BCR-ABL) was “similarly repress the growth” and the “constitutive growth” value [3] was “similarly repress the growth”.
For O=S(=O)(c1cccc2cnccc12)N1CCCNCC1 [Fasudil], the “constitutive growth” value (cells expressing BCR-ABL) was “similarly repress the growth”, the “constitutive growth” value [3] was “similarly repress the growth” and the “survival of leukemic mice” value (leukemic mice; compared to vehicle treated) was “significant enhancement in survival”. For the same compound, the anti-leukemic activity (leukemic mice; in vivo models of AML) was “potent anti-leukemic activity”.
In the case of [N]=O [NO, nitric oxide], the ROCK activity (ROCK; patients with CVD, exogenous NO) is given as “inhibits ROCK activity”.
In the case of COc1cccc2c1C(=O)c1c(O)c3c(c(O)c1C2=O)C[C@@](O)(C(=O)CO)C[C@@H]3O[C@H]1C[C@H](N)[C@H](O)[C@H](C)O1 [DOX, doxorubicin], the mortality rate (WT and ROCK1^−/− mice; ROCK1 deficient mice, at 3 months) is reported as 55%, the mortality rate (WT and ROCK1^−/− mice; ROCK1 deficient mice, at 6 months) is reported as 70% and the mortality rate (WT and ROCK1^−/− mice; ROCK1−/− mice, over 6 weeks after initial DOX injection) is reported as “about 10%”. For the same compound, the “death of all treated mice” value (WT and ROCK1^−/− mice; WT mice) was “died within 3 months”, the mortality rate (WT and ROCK1^−/− mice; WT mice, over 6 weeks after initial DOX injection) was “about 70%” and the Bax levels (WT and ROCK1^−/− mice; mouse, in vivo) was “increased”. The “autophagosomes by transmission electron microscopy” value (WT and ROCK1^−/− mice; mouse, in vivo) was “more accumulation of autophagosomes”, the body weight (WT and ROCK1^−/− mice; mouse, in vivo) was “significant impact” and the cardiac fibrosis (WT and ROCK1^−/− mice; mouse, in vivo) was “increased”. For the same compound, the cardiac function (WT and ROCK1^−/− mice; mouse, in vivo) was “preserved”, the “cardiac function (percent fractional shortening)” value (WT and ROCK1^−/− mice; mouse, in vivo) was “impaired” and the cardiomyocyte size (WT and ROCK1^−/− mice; mouse, in vivo) was “significant impact”. For the same compound, the “characteristics of DOX-induced CTX (TUNEL, Bax translocation, fibrosis)” value (WT and ROCK1^−/− mice; mouse, in vivo) was “effectively blocked”, the heart weight (WT and ROCK1^−/− mice; mouse, in vivo) was “significant impact” and the “mitochondrial translocation of Bax” value (WT and ROCK1^−/− mice; mouse, in vivo) was “increased”. For the same compound, the “number of TUNEL positive cardiac cells” value (WT and ROCK1^−/− mice; mouse, in vivo) was “significantly increased”, the “DOX-induced LV dilation” value (WT and ROCK1^−/− mice; mouse, in vivo, 8 mg/kg) was “blocked” and the “LV contractile function (LV fractional shortening, FS)” value (WT and ROCK1^−/− mice; mouse, in vivo, 8 mg/kg) was “reduced”. For the same compound, the “left ventricular (LV) dilation (LVESD, LVEDD) by echocardiogram” value (WT and ROCK1^−/− mice; mouse, in vivo, 8 mg/kg) was “reproducible and progressive left ventricular (LV) dilation”, the “cardiotoxic events (cardiac dysfunction, TUNEL positivity, cardiac fibrosis)” value ([4]; MHC-Cre/ROCK1fl/fl mice) was “significantly reduced” and the “cardiotoxic events (cardiac dysfunction, TUNEL positivity, cardiac fibrosis)” value ([4]; ROCK1fl/fl hearts) was “induced cardiac dysfunction, increased TUNEL positivity and cardiac fibrosis”. The AML response (AML mice; IP 8 mg/kg/week for 3 weeks) was “complete remission of AML”, the CTX (AML mice; mouse, in vivo, ip, 8 mg/kg) was “severe CTX including dysfunction” and the “patients with clinical or sub-clinical manifestation of heart failure” value [5] was 6-18%.
